The MIC is the least concentration at which growth counts as inhibited.

Assay [1] has as its system E. coli (BAS). The assay is described as follows: MIC, broth microdilution, E. coli (BAS). The format is cell-based. How it is done:
(§1) The antimicrobial activity of a compound or formulation according to the invention is determined by exposing a culture comprising a bacterial species to different concentrations of the compound or formulation and monitoring the effects on growth relative to a control culture not exposed to the compound. Any method known in the art may be used to assess bacterial growth. Antimicrobial effects are expressed as Minimal Inhibitory Concentration (MIC) and Minimum Bactericidal Concentration (MBC).
(§2) The MIC is expressed as a range between the concentration at which no growth is observed and the concentration of the dilution which immediately follows.
(§3) Typically, MIC is measured using a broth microdilution assay as follows. Dilution of candidate antimicrobial compounds in culture medium is performed in a sterile, covered 96-well microtiter plate with flat bottom wells (Costar #9017). The final concentrations of the compounds are typically 100, 50, 25, 12.5, 6.25, 3.12, 1.56, 0.78, 0.39, 0.20, 0.10, and 0.05 μg/mL, respectively. Culture medium only (containing no bacteria) is also included as a negative control for each plate. Ampicillin and rifamnpin are used as positive controls against all bacterial strains in every experiment.
(§4) The overnight culture of a single colony is diluted in sterile medium so that, after inoculation, each well contains approximately 5×10^5CFU/mL. Within 15 minutes of preparation, […] of the adjusted inoculum suspension is added to the microliter plate. Each well is diluted with an equal volume of the antimicrobial compounds or control solution. The inoculated microtiter plate is typically incubated at 35° C. for 16-20 hours. The turbidity of each well is determined by measuring the absorbance at 595 nm using a BioRad Model 3550-UV microplate reader.
(§5) The antimicrobial activities of the compounds of the invention, expressed as MIC and MBC, were determined as described above, using as tester strains wild-type S. aureus, rifampicin-resistant S. aureus, wild-type E. coli, and E. coli cells that had been permeabilized.
On the technique in general: Dilution methods test growth across graded concentrations, often in twofold steps.

For assay [2], the system named is S. Aureus (Rif-res). The assay is described as follows: MIC, broth microdilution, S. Aureus (Rif-res). The format is cell-based. How it is done:
as §1, §2, §3, §4, §5

For assay [3], the system named is S. Aureus (Rif-res). Description: MBC, S. Aureus (Rif-res). The settings on record: for MBC: Staphylococcus aureus, read-out: MBG. The format is cell-based. How it is done:
as §1
(§6) The minimum bactericidal concentration (MBC) is defined as the concentration of antimicrobial agent from which no colonies grow on petri plates or in the medium. In practice, the MBC is arbitrarily defmed as the concentration at which a 1000-fold reduction in colony forming units is observed with respect to the original inoculum (survival of 0.1%). Typically, the wells from a MIC microliter plate using a 96-well inoculation grid into a fresh microliter plate containing 100 μL Mueller-Hinton broth per well. The MBC plates are incubated at 37° C. for 16-20 hrs and the MBC values are determined.
as §5

Assay [4] concerns S. Aureus. The assay is described as follows: MBC, S. Aureus. It counts as cell-based. The conditions noted are these: for MBC: Staphylococcus aureus, read-out: MBG. On the procedure:
as §1, §6, §5

For assay [5], the system named is E. coli (MCR106). Description: MBC, E. coli (MCR106). The settings on record: minimum bactericidal concentration; for MBC: Escherichia coli, read-out: MBG. It counts as cell-based. On the procedure:
as §1, §6, §5

Assay [6] has as its system S. Aureus. Description: MIC, broth microdilution, S. Aureus. The settings on record: for MIC: S. Aureus. The format is cell-based. How it is done:
as §1, §2, §3, §4, §5

Assay [7] has as its system E. coli (MCR106). The assay is described as follows: MIC, broth microdilution, E. coli (MCR106). The format is cell-based. How it is done:
as §1, §2, §3, §4, §5

Assay [8] has as its system E. coli (BAS). Description: MBC, E. coli (BAS). The format is cell-based. The conditions noted are these: minimum bactericidal concentration; for MBC: Escherichia coli, read-out: MBG. How it is done: as §1, §6, §5
The test system of another assay is bacterial RNA polymerase. Description: in vitro transcription, bacterial versus human RNA polymerase. It counts as biochemical. The settings on record: in words; RNA polymerase from S. aureus, E. coli or human, pTaq promoter template. From the text: The compounds useful for inclusion in the pharmaceutical formulations of the invention can be identified by their ability to bind to, and/or inhibit the activity of, one or more bacterial RNA polymerases. RNA polymerase as used herein refers to DNA-dependent RNA polymerase holoenzyme, which is a complex consisting of five protein subunits: two copies of the a subunit and one copy each of the β, β', and σ subunits. The α, β and β' subunits are invariant in a given bacterial species and together form core RNA polymerase.
RNA polymerase inhibition activity of a compound can be detected by including the compound in an in vitro transcription reaction and comparing the level of transcription that occurs in the presence and absence of the compound. […] After incubation for 60 minutes at 25° C., the reaction is terminated with 100 μl 10% TCA, which also precipitates the newly transcribed RNA, and incorporation of radioactivity into RNA is quantified. […]
It will be understood that useful antimicrobial compositions and formulations act selectively on microbial pathogens. […] That is, the inhibitory activity of a particular compound towards an animal RNA polymerase may be measured in parallel with a bacterial RNA polymerase. […]

Where [9] appears, read: Escherichia coli, read-out: MIC.
[10] abbreviates: Staphylococcus aureus, read-out: MIC.

Values after ≈ are worked out from the molar mass of the structure shown. Read-outs that look alike come from different tables or passages of the source.

For the compound `OCCCN1CCN(c2ccc(Nc3ccnc4cc5ccccc5cc34)cc2)CC1` [3{4-[4-(benzo[g]quinolin-4-yl-amino)phenyl]-1-piperazinyl}-1-propanol], the MIC came out at 8 µg/mL (≈ 19.4 µM) with E. coli (BAS) [1] (setting [9]), 8 µg/mL (≈ 19.4 µM) in the assay on S. Aureus (Rif-res) [2] (Staphylococcus aureus), 32 µg/mL (≈ 77.6 µM) in the assay on S. Aureus [6] (setting [10]) and 16 µg/mL (≈ 38.8 µM) against E. coli (MCR106) [7] (Escherichia coli). The MBC came to 8 µg/mL (≈ 19.4 µM) in the assay on S. Aureus (Rif-res) [3], 32 µg/mL (≈ 77.6 µM) in the assay on S. Aureus [4], 64 µg/mL (≈ 155 µM) in the assay on E. coli (MCR106) [5] and 8 µg/mL (≈ 19.4 µM) in the assay with E. coli (BAS) [8].

Consider `CCCCC(C)Nc1ccnc2cc3ccccc3cc12` (centres unmarked) [N-(1-methylpentyl)benzo[g]quinolin-4-amine], for which the minimum inhibitory concentration (MIC) with E. coli (BAS) [1] (setting [9]) is 8 µg/mL (≈ 28.7 µM); in the assay with S. Aureus (Rif-res) [2] (Staphylococcus aureus), 8 µg/mL (≈ 28.7 µM); in the assay on S. Aureus [6] (setting [10]), 16 µg/mL (≈ 57.5 µM); with E. coli (MCR106) [7] (Escherichia coli), over 64 µg/mL. Further, the MBC was 16 µg/mL (≈ 57.5 µM) with S. Aureus (Rif-res) [3], 16 µg/mL (≈ 57.5 µM) in the assay on S. Aureus [4], over 64 µg/mL in the assay with E. coli (MCR106) [5] and 16 µg/mL (≈ 57.5 µM) in the assay with E. coli (BAS) [8].

Turning to `c1ccc2cc3c(Nc4ccc(N5CCCCCC5)cc4)ccnc3cc2c1` [N-[4-(1-azepanyl)phenyl]benzo[g]quinolin-4-amine], the minimum inhibitory concentration (MIC) in the assay on E. coli (BAS) [1] (setting [9]) was over 64 µg/mL; with S. Aureus (Rif-res) [2] (Staphylococcus aureus) it was 1 µg/mL (≈ 2.72 µM); in the assay with S. Aureus [6] (setting [10]), 2 µg/mL (≈ 5.44 µM); against E. coli (MCR106) [7] (Escherichia coli), over 64 µg/mL. In addition, the MBC is 1 µg/mL (≈ 2.72 µM) in the assay on S. Aureus (Rif-res) [3], 2 µg/mL (≈ 5.44 µM) in the assay on S. Aureus [4], over 64 µg/mL with E. coli (MCR106) [5] and over 64 µg/mL in the assay on E. coli (BAS) [8].

On to `CCN1CCC(c2ccc(Nc3ccnc4cc5ccccc5cc34)cc2)CC1` [N-[4-(1-ethyl-4-piperidyl)phenyl]benzo[g]quinolin-4-amine], for which the MIC with E. coli (BAS) [1] (setting [9]) came to 32 µg/mL (≈ 83.9 µM); with S. Aureus (Rif-res) [2] (Staphylococcus aureus) it was 32 µg/mL (≈ 83.9 µM); in the assay on S. Aureus [6] (setting [10]) it was 64 µg/mL (≈ 168 µM). Besides, the MBC in the assay on S. Aureus (Rif-res) [3] came out at 32 µg/mL (≈ 83.9 µM); in the assay on S. Aureus [4] it was 64 µg/mL (≈ 168 µM); in the assay on E. coli (MCR106) [5], 32 µg/mL (≈ 83.9 µM); in the assay with E. coli (BAS) [8], 32 µg/mL (≈ 83.9 µM).

For `c1ccc2cc3c(Nc4ccc(N5CCCCC5)cc4)ccnc3cc2c1` [N-[4-(1-piperidinyl)phenyl]benzo[g]quinolin-4-amine], the minimum inhibitory concentration (MIC) was 2 µg/mL (≈ 5.66 µM) with E. coli (BAS) [1] (setting [9]), 2 µg/mL (≈ 5.66 µM) against S. Aureus (Rif-res) [2] (Staphylococcus aureus), 2 µg/mL (≈ 5.66 µM) in the assay with S. Aureus [6] (setting [10]) and over 64 µg/mL in the assay on E. coli (MCR106) [7] (Escherichia coli). Moreover, the MBC in the assay with S. Aureus (Rif-res) [3] was 2 µg/mL (≈ 5.66 µM); in the assay on S. Aureus [4], 4 µg/mL (≈ 11.3 µM); in the assay with E. coli (MCR106) [5], over 64 µg/mL; in the assay on E. coli (BAS) [8] it was 2 µg/mL (≈ 5.66 µM). In the assay on S. Aureus [6] (in words, MIC and MBC, compared with the other compounds), the “antimicrobial activity against S. aureus” value is “most potent antimicrobial activity against s. aureus”. In the assay with E. coli (MCR106) [7] (in words, MIC and MBC, E. coli strain not named), the “antimicrobial activity against E. coli” value is listed as “less effective against E. coli”. The “selectivity for bacterial RNA polymerase relative to human RNA polymerase” value with bacterial RNA polymerase is given as “highest degree of selectivity for bacterial RNA polymerases”.

Take `C#CCCN1CCN(c2ccc(Nc3ccnc4cc5ccccc5cc34)cc2)CC1` [N-{4-[4-(3-butynyl)-1-piperazinyl]phenyl}benzo[g]quinolin-4-amine]: the minimal inhibitory concentration (MIC) in the assay on E. coli (BAS) [1] (setting [9]) was over 64 µg/mL; against S. Aureus (Rif-res) [2] (Staphylococcus aureus), 16 µg/mL (≈ 39.4 µM); in the assay with S. Aureus [6] (setting [10]) it was 16 µg/mL (≈ 39.4 µM); in the assay with E. coli (MCR106) [7] (Escherichia coli) it was over 64 µg/mL. The MBC in the assay on S. Aureus (Rif-res) [3] is 16 µg/mL (≈ 39.4 µM); with S. Aureus [4], 16 µg/mL (≈ 39.4 µM); in the assay on E. coli (MCR106) [5], over 64 µg/mL; in the assay on E. coli (BAS) [8] it was over 64 µg/mL.

On to `CCN(CC)CCNc1ccc(Nc2ccnc3cc4ccccc4cc23)cc1` [N^1-benzo[g]quinolin-4-yl-N^4-[2-(diethylamino)ethyl]-1,4-benzenediamine], for which the MIC in the assay with E. coli (BAS) [1] (setting [9]) amounted to 4 µg/mL (≈ 10.4 µM); in the assay with S. Aureus (Rif-res) [2] (Staphylococcus aureus), 8 µg/mL (≈ 20.8 µM); with S. Aureus [6] (setting [10]), 16 µg/mL (≈ 41.6 µM); in the assay with E. coli (MCR106) [7] (Escherichia coli) it was 8 µg/mL (≈ 20.8 µM). For the same compound, the MBC was determined as 8 µg/mL (≈ 20.8 µM) with S. Aureus (Rif-res) [3], 16 µg/mL (≈ 41.6 µM) with S. Aureus [4], 16 µg/mL (≈ 41.6 µM) in the assay on E. coli (MCR106) [5] and 16 µg/mL (≈ 41.6 µM) in the assay with E. coli (BAS) [8].

As to `CC(C)Nc1ccc(Nc2ccnc3cc4ccccc4cc23)cc1` [N^1-benzo[g]quinolin-4-yl-N^4-isopropyl-1,4,benzenediamine], the MIC in the assay with E. coli (BAS) [1] (setting [9]) is over 64 µg/mL; in the assay with S. Aureus (Rif-res) [2] (Staphylococcus aureus), 32 µg/mL (≈ 97.7 µM); in the assay with S. Aureus [6] (setting [10]) it was 8 µg/mL (≈ 24.4 µM); against E. coli (MCR106) [7] (Escherichia coli), over 64 µg/mL. In addition, the MBC is 32 µg/mL (≈ 97.7 µM) with S. Aureus (Rif-res) [3], 8 µg/mL (≈ 24.4 µM) in the assay on S. Aureus [4], over 64 µg/mL with E. coli (MCR106) [5] and over 64 µg/mL in the assay with E. coli (BAS) [8].

Consider “N-{5-benzo[g]quinolin-4-yl-3-[(diethylamino)methyl]-2-methylbenzyl}-N-ethyl-1-ethanamine”, for which the MIC worked out at 16 µg/mL with E. coli (BAS) [1]; 32 µg/mL against S. Aureus (Rif-res) [2] (S. Aureus (Rif-res), rifampicin-resistant); 64 µg/mL in the assay on S. Aureus [6]; 64 µg/mL against E. coli (MCR106) [7] (E. coli (MCR106)). For the same compound, the MBG was 64 µg/mL with S. Aureus (Rif-res) [3] (S. Aureus (Rif-res), rifampicin-resistant, minimum bactericidal concentration); 64 µg/mL in the assay with S. Aureus [4] (S. Aureus, minimum bactericidal concentration); over 64 µg/mL in the assay on E. coli (MCR106) [5]; 16 µg/mL in the assay with E. coli (BAS) [8].

The values are drawn from patent US6274596A, “Benzoquinoline derivatives useful as antibacterial agents” (priority 1999, dated 2001).
